Source: article PMC8152265, “Seconeolitsine, the Novel Inhibitor of DNA Topoisomerase I, Protects against Invasive Pneumococcal Disease Caused by Fluoroquinolone-Resistant Strains” (Antibiotics, 2021)
≈ marks a conversion by molar mass, not a printed value. Where two headings read alike, the source gives them in different places.

Key:
[1] = system: S. pneumoniae isolate CipR5 (serotype 33F); test: MIC by broth microdilution, isolate CipR5; type: cell-based, Streptococcus pneumoniae; conditions: AGCH medium, 18–24 h
Experimental: (§1) Bacteria were grown in Todd-Hewitt broth supplemented with 0.5% yeast extract (Difco) to an optical density at 580 nm (OD580) of 0.4 to 0.5 corresponding to ca. 10^8 CFU/mL. Single-use aliquots were stored at −80 °C in 10% glycerol to use in mice infections as previously described. Antimicrobial susceptibility was tested by broth microdilution, according to the Clinical and Laboratory Standards Institute guidelines. S. pneumoniae R6 was included as a quality control. Powders of known potency of LVX and MXF were purchased from Sigma. SCN was synthesized as previously described. Briefly, for MIC determination, pneumococcal strains were grown in a casein hydrolysate-based medium with 0.3% sucrose as an energy source (AGCH medium). A 96-well plate was used including broth containing different concentrations of antibiotics. Plates were inoculated with a standardized suspension of the pneumococcal strains followed by incubation at 37 °C with 5% CO2 for 18–24 h. The minimal inhibitory concentrations (MICs) were determined by observing the lowest concentration of the agent that inhibited visible growth of the bacterium.

[2] = system: S. pneumoniae isolate CipR15 (serotype 16F); test: MIC by broth microdilution, isolate CipR15; type: cell-based, Streptococcus pneumoniae; conditions: AGCH medium, 18–24 h
Experimental: as §1

[3] = system: S. pneumoniae isolate CipR45 (serotype 8); test: MIC by broth microdilution, isolate CipR45; type: cell-based, Streptococcus pneumoniae; conditions: isolate CipR45, serotype 8, low-level FQ-resistant, AGCH medium, 18–24 h
Experimental: as §1

[4] = system: S. pneumoniae isolate CipR57 (serotype 8); test: MIC by broth microdilution, isolate CipR57; type: cell-based, Streptococcus pneumoniae; conditions: isolate CipR57, serotype 8, high-level FQ-resistant, AGCH medium, 18–24 h
Experimental: as §1

[5] = system: S. pneumoniae isolate CipR72 (serotype 15A); test: MIC by broth microdilution, isolate CipR72; type: cell-based, Streptococcus pneumoniae; conditions: AGCH medium, 18–24 h
Experimental: as §1

[6] = system: S. pneumoniae isolate CipR57; test: Mouse sepsis model, survival after infection with CipR57; type: in vivo, Streptococcus pneumoniae; conditions: for survival at 36 h post-infection / survival within the first 48 h post-infection: mice infected i.p. with CipR57; for survival within the first 48 h post-infection: any concentration investigated (12.5 to 50 mg/kg s.c. every 12 h)
Experimental: (§2) BALB/c female mice (8–12 weeks old) weighing 20 g were purchased from Harlan Laboratories (Barcelona, Spain). […] Different concentrations of antibiotic (10, 20, and 40 mg/kg for SCN; 12.5, 25, and 50 mg/kg for LVX) were administered two times a day over 48 h by the subcutaneous route. The doses, interval, and schedule chosen were based in previous studies investigating the protective activity of FQs against pneumococcal sepsis in mice. Seconeolitsine stock solution was dissolved in dimethyl sulfoxide (DMSO) and the doses tested for protection in animals were prepared in PBS containing 1% DMSO. Animals in the lethal control groups were infected with S. pneumoniae and received the antibiotic solvent (PBS−1% DMSO) instead of SCN or LVX. The toxicity control for each antibiotic (no infection group) only received SCN or LVX. Animal experiments were performed in groups of at least 5 mice and were repeated twice.

[7] = system: S. pneumoniae isolate CipR57; test: Bacterial counts in blood of mice infected with CipR57; type: in vivo, Streptococcus pneumoniae; conditions: for effect on bacterial load in blood compared to the untreated group: 24 and 48 h post-infection, LVX 25 and 50 mg/kg, SCN different doses; for bacterial levels in blood at 24 h: 24 h post-infection; for bacteria in blood at 48 h: 48 h post-infection
Experimental: Bacteremic profiles (colony counts in blood) were determined from mice treated with SCN and LVX, at 24 h and 48 h post-infection, when the majority of mice were alive. To collect blood samples, volumes of 6 µl were obtained from the tail vein, as previously described, resuspended in PBS and plated onto blood agar plates at 37 °C in 5% CO2 for colony counts determination.

[8] = Serum pharmacokinetics in non-infected mice after single subcutaneous dose; type: in vivo, BALB/c mice
Experimental: Groups of two mice for each antibiotic and time-point were treated with a single subcutaneous dose of 40 mg/kg of SCN or 50 mg/kg of LVX. Blood samples were collected at 15 and 30 min and 1, 2, 4, 6, 8, 10, 12, 14, 18, and 24 h, centrifuged for 10 minutes at 2000 rpm, and the sera from the different mice were stored at −80 °C until drug assay determination.
Seconeolitsine concentrations were measured by high-pressure liquid chromatography analysis (HPLC). Chromatographic separation was performed using SunFire C18 column (150 × 4.6 mm; Waters Corporation, MA, USA) with trifluoroacetic acid and acetonitrile in the ratio 70:30 (vol./vol.) as the mobile phase. The solvent flow rate was 1.0 mL/min with a runtime of 20 minutes. The mobile phase was filtered through 0.45 µm prior to use. Standards ranging from 0−1.000 µg/mL were prepared in HPLC grade methanol. Sample dilutions, prepared in mouse serum, were injected into the column at a constant volume of 20 µl and were tested in duplicate. The detection wavelength was 270 by UV absorbance using a Waters UV–Visible 2489 module (Waters Corporation). The column was maintained at room temperature.
Plates containing a lawn of microorganism were incubated for 18–24 h at 37 °C. Standards and dilutions were prepared in mouse serum in a range from 0.03–8 µg/ mL.
Pharmacokinetic (PK) parameters measured included peak level (Cmax), time peak level (Tmax), area under the concentration time-curve from 0 to last (Clast) measured concentration (AUClast), and elimination half-life (t1/2). These parameters were estimated for both the total concentrations and the free fraction concentrations and were determined by using protein binding values, by a non-compartmental approach with the Phoenix WinNonlin program (version 6.2, Certara, NJ, USA). […] T>MIC for total and unbound concentrations (fT>MIC) were determined by a non-compartmental approach for PD data (Phoenix WinNonlin, model 220).

plasma proteins = test: Protein binding by ultrafiltration; type: in vitro ADME; conditions: murine plasma
Experimental: Binding to serum proteins was determined by the ultrafiltration method (36) using the Centrifree micropartition system (Amicon Bioseparations, Millipore, Tullagreen, Ireland) with concentrations in murine plasma of 1 and 50 μg/mL for SCN and 5 and 50 μg/mL for LVX. Pre-filtered samples and ultrafiltrates recovered were measured by HPLC or bioassay, as described above. Percentage of SCN or LVX bound to proteins in mouse serum was calculated using the expression: [antibiotic in pre−filtered samples] − [antibiotic in ultrafiltrated samples]/[antibiotic in pre-filtered samples] × 100 as previously described.

[9] = Toxicity control, non-infected mice; type: in vivo, BALB/c mice; conditions: 40 mg/kg, largest concentration used; 7 days of follow-up
Experimental: as §2

Hydrosolubility = type: physicochemical; conditions: data not shown
S. pneumoniae Topo I = system: S. pneumoniae Topo I; design: method as in PMID 21169356; conditions: cited from earlier work
S. pneumoniae = system: S. pneumoniae; design: method as in PMID 21169356; conditions: cited from earlier work
human cell = system: human cell; design: method as in PMID 21169356; conditions: cited from earlier work
[10] = system: S. pneumoniae isolate CipR45; test: Mouse sepsis model, survival after infection with CipR45; type: in vivo, Streptococcus pneumoniae; conditions: mice infected i.p. with CipR45
Experimental: as §2

[11] = mouse serum, single s.c. dose 40 mg/kg (seconeolitsine) or 50 mg/kg (levofloxacin)
[12] = Streptococcus pneumoniae, read-out: MIC
[13] = BALB/c, mouse, in vivo, sc, 50 mg/kg

## CNCCc1cc2c(c3c1ccc1cc4c(cc13)OCO4)OCO2 [Seconeolitsine, seconeolitsine]
[1]
  MIC: 5.2 µg/mL (≈ 16.1 µM)
[2]
  MIC: 2.6 µg/mL (≈ 8.04 µM)
[3]
  MIC: 5.2 µg/mL (≈ 16.1 µM)
[4]
  MIC: 2.6 µg/mL (≈ 8.04 µM)
[5]
  MIC: 5.2 µg/mL (≈ 16.1 µM)
[6]; 20 mg/kg s.c. every 12 h over 48 h
  survival at 36 h post-infection: 60%
[6]; 40 mg/kg s.c. every 12 h over 48 h
  survival at 36 h post-infection: 70%
[6]; mice infected with a serotype 8-resistant strain, 40 mg/kg every 12 h during two days (abstract)
  protection at 48 h: 70%
[7]
  effect on bacterial load in blood compared to the untreated group: significantly reduced bacterial load
  bacterial levels in blood at 24 h: 10^4−10^5 CFU/mL
  bacteria in blood at 48 h: a significant proportion of mice treated with SCN were free of bacteria
[8]; by HPLC
  SCN-derived metabolites in murine plasma: not detected
[8]; [11]
  AUC0-12h: 5000 ± 0 ng·h/mL
  Cmax: 1600 ± 300 ng/mL
  Cmin: 300 ± 40 ng/mL
  Tlast: 9.0 ± 1.4 h
  Tmax: 60 ± 0 min
  t1/2: 468 ± 144 min
[8]; mouse serum, single s.c. dose 40 mg/kg (seconeolitsine) or 50 mg/kg (levofloxacin), twice the AUC0-last
  AUC0-24h: 10000 ± 100 ng·h/mL
Plasma proteins; 1 µg/mL
  binding to plasma proteins: 40%
Plasma proteins; 50 µg/mL
  binding to plasma proteins: 80%
[9]
  harm to non-infected mice (survival, aspect, breathing, hair, eyes, appetite, movement, weight): not harmful
Hydrosolubility
  hydrosolubility: poor hydrosolubility
S. pneumoniae Topo I
  concentration inhibiting S. pneumoniae Topo I activity in vitro: ~ 10 µM
S. pneumoniae
  concentration inhibiting cell growth: ~ 10 µM
Human cell
  effect on human cell viability: without affecting human cell viability

## O=C(O)c1cn(C2CC2)c2cc(N3CCNCC3)c(F)cc2c1=O [CIP, ciprofloxacin]
[1]; [12]
  MIC: 16 µg/mL (≈ 48.3 µM)
[2]; [12]
  MIC: 32 µg/mL (≈ 96.6 µM)
[3]; [12]
  MIC: 4 µg/mL (≈ 12.1 µM)
[4]; [12]
  MIC: 64 µg/mL (≈ 193 µM)
[5]; [12]
  MIC: 64 µg/mL (≈ 193 µM)

## C[C@H]1COc2c(N3CCN(C)CC3)c(F)cc3c(=O)c(C(=O)O)cn1c23 [Levofloxacin, levofloxacin]
[1]; [12]
  MIC: 8 µg/mL (≈ 22.1 µM)
[2]; [12]
  MIC: 16 µg/mL (≈ 44.3 µM)
[3]; [12]
  MIC: 2 µg/mL (≈ 5.53 µM)
[4]; [12]
  MIC: 16 µg/mL (≈ 44.3 µM)
[5]; [12]
  MIC: 32 µg/mL (≈ 88.6 µM)
[10]; 12.5 mg/kg s.c. every 12 h over 48 h
  survival at 36 h post-infection: 40%
[10]; 25 mg/kg s.c. every 12 h over 48 h
  survival at 36 h post-infection: 80%
[10]; 50 mg/kg s.c. every 12 h over 48 h
  survival at 36 h post-infection: 100%
[10]; 12.5 to 50 mg/kg s.c. every 12 h over 48 h
  survival at 78 h post-treatment: all mice succumbed to the infection
[6]
  survival within the first 48 h post-infection: all died within the first 48 h
[6]; listed as LVX
  survival within the first 48 h post-infection: all the animals died within the first 48 h post-infection
[7]
  effect on bacterial load in blood compared to the untreated group: did not reduce bacterial levels in blood
  bacterial levels in blood at 24 h: around 10^8 CFU/mL
  bacteria in blood at 48 h: High levels of bacterial counts
[8]; [13]
  Cmax: 14700 ± 700 ng/mL
  Tmax: 15 min
  half-life: 42 min
[8]; BALB/c, mouse, in vivo, sc, 50 mg/kg, AUC0-12h
  AUC(0-t): 17300 ± 1500 ng·h/mL
[8]; BALB/c, mouse, in vivo, sc, 50 mg/kg, AUC0-24h
  AUC(0-t): 34600 ± 2900 ng·h/mL
Plasma proteins; 5 µg/mL
  binding to plasma proteins: 12%
Plasma proteins; 50 µg/mL
  binding to plasma proteins: 33%

## CN(C)CCc1cc2c(c3c1ccc1cc4c(cc13)OCO4)OCO2 [N-methyl-seconeolitsine]
S. pneumoniae Topo I
  concentration inhibiting S. pneumoniae Topo I activity in vitro: ~ 10 µM
S. pneumoniae
  concentration inhibiting cell growth: ~ 10 µM
Human cell
  effect on human cell viability: without affecting human cell viability

## COc1c(N2C[C@@H]3CCCN[C@@H]3C2)c(F)cc2c(=O)c(C(=O)O)cn(C3CC3)c12 [MXF, moxifloxacin]
[1]; [12]
  MIC: 2 µg/mL (≈ 4.98 µM)
[2]; [12]
  MIC: 4 µg/mL (≈ 9.96 µM)
[3]; [12]
  MIC: 0.25 µg/mL (≈ 0.623 µM)
[4]; [12]
  MIC: 4 µg/mL (≈ 9.96 µM)
[5]; [12]
  MIC: 4 µg/mL (≈ 9.96 µM)
